The results in this text go back to a melting point compilation (Tetko et al.; mined from patent text by program, amines drawn as free bases though some values may be those of a salt).

For orientation: melting point means the temperature of the solid-liquid transition. In turn, `Cc1cc2c(cc1Cl)[nH]c1c(C(=O)O)cccc12` returned a melting point of 310 °C.
To `COC(=O)c1cc(-c2ccccc2)c(=O)n2c1-c1sccc1CC2` belongs 116 °C; to `O=C(O)Cc1ccc2ccn(Cc3ccccc3)c2c1`, 109 to 111 °C.
Consider `CC(=O)Nc1ccc2c3c(cccc13)CC2`, for which the melting point fell in the range of 180 to 186 °C.
Under `O=[N+]([O-])c1cc2n(n1)CCOC2` stands 110 to 112 °C; under `CN1Cc2c(C(N)=S)ncn2-c2ccccc2C1=O`, 295 to 297 °C.
Under `COc1ccc(OC(=O)c2c(Cl)cccc2Cl)cc1OC1CCCC1` stands 100 to 101 °C.
To `N#Cc1cc(C#N)cc(OC(C(=O)C2CC2)C(=O)C2CC2)c1` belongs 135 to 137 °C.
Take `COc1ccc(C(C(c2ccccc2)c2ccc(F)cc2)C(F)(F)F)cc1` (centres undefined): the melting point fell in the range of 113 to 120 °C.
Under `Cc1ccc(C(=O)NC#N)cc1` stands 140 to 142 °C.
To `CC1CC(=O)NN=C1c1ccc(N)cc1` (single isomer, unassigned; (-)) belongs 203 to 204 °C; to `CCC(C(=O)OC)c1cccc(C(=O)c2cc3cc(C(=O)OC)sc3s2)c1` (centres undefined), 143 °C.
Under `CCC(CC)(COc1nn2nc(C)nc2cc1C)CS(N)(=O)=O` stands 221 to 222 °C.
Consider `O=C(O)CCCCN1CCC(Cc2ccccc2)CC1`, for which the melting point was in the range of 148 to 151 °C.
`O=c1ccc(-c2ccccc2Cl)n[nH]1` displayed a melting point of 214 to 216 °C.
Under `CC(C)Cn1nc(C(=O)c2cccc(O)c2)c2ccccc21` stands 108 to 110 °C; under `CC(CN1CCCC1)N1c2ccccc2Sc2ccc(C3=NC4CCCCC4N3)cc21` (racemic), 109 °C; under `COC(=O)CCC(=O)Nc1cccc(O)c1`, 144 to 146 °C.
Under `CCOC(=O)Cc1cc(C)c(C(=O)c2ccc(Cl)cc2)n1C` stands 101 to 104 °C; under `CCN(CC)C(=O)COc1ccc(CCC(=O)NS(=O)(=O)CCC(C)C)c(Oc2ncc(C(F)(F)F)cc2Cl)c1`, 123 to 125 °C.
Under `CCCCNC(=S)Nc1cccc(-c2ccnc3c(C(=O)c4cccs4)cnn23)c1` stands 155 to 157 °C.
In turn, `CN(C)C=Nc1c(F)ccc(F)c1C#N` showed a melting point of 56 to 60 °C.
To `CCN1C(=O)C(C)(C)C(=O)N(C)c2cc(CN(CCn3ccc4sccc4c3=O)Cc3cccnc3COC)ccc21` belongs 119 to 122 °C.
Under `Cc1cc(Cl)c(OCCO)cc1Nc1nnc2n1[C@H](c1ccc(F)cc1)COC2` stands 161 to 162 °C; under `CSCc1nc(C)cc(O)n1`, 138 °C.
To `CC(C)(C)C(=O)C(CS(=O)(=O)c1ccc(Cl)cc1)n1cncn1` (centres undefined) belongs 134 °C; to `CCOC(=O)[C@H](Cc1ccc([N+](=O)[O-])cc1)NC(=O)c1ccccc1`, 99 to 101 °C; to `CC(C)S(=O)(=O)O[C@H]1C[C@@H](C(=O)O)N(C(=O)c2ccccc2Br)C1`, 139 to 140 °C.
`CC(Cc1ccc(OCc2ccccc2)cc1)NC(=O)CC(c1ccccc1)c1ccccc1` (centres undefined) had a melting point of 121 to 125 °C.
To `CN(CCc1ccncc1)S(=O)(=O)C1CCCCC1` belongs 94 to 96 °C; to `NC(=Nc1ccc(CNC(=O)CCCCC2CCSS2)cc1)c1cccs1` (centres undefined), 152 °C.
Under `Cc1cc(C)cc(N2CCN(C(=O)Nc3cc(-c4cccnc4)nc4ccccc34)CC2)c1` stands 211 to 213 °C; under `CNC(=O)c1cccc2cccc(NC(=O)c3cccs3)c12`, 210 °C.
As to `Cc1oc(C=Cc2cccc(C(F)(F)F)c2)nc1C(=O)O`, the melting point is 204 to 205 °C.
As for `COC(=O)CCCc1cc2nc(Cl)ccc2n1S(=O)(=O)c1c(F)cccc1F`, the melting point was 107 to 109 °C.
To `CC(C)(C)OC(=O)NCc1cccc(OCCC2Oc3ccccc3N(Cc3ccc(Cl)cc3)C2=O)c1` (centres undefined) belongs 114 to 116 °C; to `CN1CCC(=C2c3cc(Br)n(C)c3CCn3ccnc32)CC1`, 179 °C.
To `NCCc1ccc(OCc2ccccc2)c(NC(N)=O)c1` belongs 176 to 180 °C.
Under `O=C(c1ccccc1)N1CCc2[nH]c3c(-c4ccccc4)cccc3c2CC1` stands 198 to 200 °C.
Compound `CC(C)(C)NC(=O)[C@@H]1C[C@H](Cl)CN1C(=O)[C@@H](O)[C@H](Cc1ccccc1)NC(=O)[C@H](CC(N)=O)NC(=O)OCc1ccccc1` displayed a melting point of 103 to 107 °C.
To `Oc1ccc(Cn2cc[nH]c2=S)cc1F` belongs 161 to 165 °C; to `CCNc1cccc(-c2ccnc3c(C(=O)c4cccs4)cnn23)c1`, 154 to 155 °C.
Under `Cc1c(F)c(N2CCNCC2)c(F)c2c1c(=O)c(C(=O)O)cn2-c1ccc(F)cc1F` stands 240 to 242 °C.
For the compound `Clc1ccc(Nc2nnc(Cl)c3sccc23)cc1`, the melting point lay in the range of 139 to 142 °C.
To `CC(C)OCC(COC(C)C)OCn1cnc2cnc(N)nc21` belongs 89 to 90 °C; to `OCc1cn(-c2ccc(F)c(C(F)F)c2)cn1`, 133 to 134 °C; to `CC(C)(C)CCCOC1CCC2C3C(=O)C=C4CC(O)CCC4(C)C3CCC12C` (centres undefined), 203 to 205 °C.
Under `N#Cc1cccc(NC2CCN(Cc3cc(F)cc(C(F)(F)F)c3)CC2)n1` stands 115 °C; under `OC1(c2ccc(F)cc2)Cc2ccccc2C2=NCCN21` (centres undefined), 150 to 151 °C; under `Cc1ccc(O)c2[nH]c(Cc3cccnc3)nc12`, 264 to 268 °C.
To `CC(C)S(=O)(=O)Nc1ccc2c(=O)c3c(sc2c1)CC(C)(C)CC3` belongs 263 °C.
Regarding `CC(=O)c1cccc(N2CCN(CCCCOc3ccc4c(n3)NC(=O)CC4)CC2)c1Cl`, the melting point was 138 to 139 °C.
As for `N#CN=C(Nc1cccnc1)NC1CCCC1`, the melting point was 155 to 156 °C.
Under `CC(=O)Oc1ccc(C=CC(=O)C=Cc2ccc(OC(C)=O)c(OC(C)=O)c2)cc1OC(C)=O` stands 70 to 72 °C; under `O=[N+]([O-])c1ccc2c(c1)C(Cl)=NC(CF)(CF)O2`, 75 to 77 °C.
Under `CCCCSc1nnc(-c2ccc(N)cc2)s1` stands 91 °C; under `O=C1CC2CCc3cc(O)ccc3C2=NN1c1ccccn1` (centres undefined), 193 to 194 °C; under `C=CCON=C(CC)C1=C(O)CC(c2ccc(NS(C)(=O)=O)cc2)CC1=O` (centres undefined), 134 to 135 °C.
Under `Cn1cnc2ccnc(Cl)c21` stands 62 to 65 °C; under `CO[C@]1(c2cc(F)cc(Sc3ccc4c(c3)CC/C4=N\O)c2)CCO[C@@H]1C` (racemic), 136 to 137 °C.
Compound `O=P(O)(O)CCCCc1ccccc1` gave a melting point of 88 to 90 °C.
Turning to `COC(=O)c1cc2cc(OC)c(OC)cc2c(-c2ccncc2)c1C(=O)OC`, the melting point was in the range of 196 to 198 °C.
To `O=c1nc(Nc2ccc(C(F)(F)F)cc2)sc2ncccc12` belongs 280 to 283 °C; to `NCc1[nH]c2cc(Br)c(Cl)cc2c1-c1ccccc1`, 162 to 163 °C.
To `COc1ccc(C2c3[nH]c4ccccc4c3CCN2C(=O)C=Cc2cccc([N+](=O)[O-])c2)cc1` (centres undefined) belongs 227 °C; to `CC(C)c1c(Sc2cccc(Cl)c2)nc(COC(N)=O)n1C`, 145 to 146 °C; to `O=[N+]([O-])c1ccc2c(c1)C(c1ccccc1)=NCc1nc(CO)cn1-2`, 250 to 251 °C.
To `O=C1Nc2ccccc2N(C(=O)N2CCC(CCCCN3CCCC3)CC2)c2ncccc21` belongs 193 to 195 °C; to `CCc1nc(O)c(I)c(Cl)n1`, more than 230 °C.
`CCn1c(=O)[nH]c(=O)c2c(-c3ccc(F)cc3)c(/C=C/C=O)c(C3CC3)nc21` returned a melting point of 236 °C.
Under `CC(N)=NC(=Nc1ccccc1)N1CCOCC1` stands 146 to 148 °C.
In turn, `CCNc1cccnc1N1CCN(C(=O)c2ccc(C(=O)OC)cn2)CC1` showed a melting point of 80 to 81 °C.
To `Cc1nnc(SCC2=C(C(=O)O)N3C(=O)C(NC(=O)CC4=CSCCS4)C3SC2)s1` (centres undefined) belongs 170 °C.
Under `CCOC(=O)c1cn2c(n1)c(OCC)nc1cc(Br)c(Br)cc12` stands 247 to 249 °C.
To `C#CCn1c(-c2ccccc2)nc(C(=O)N(C)C)c(C)c1=O` belongs 137 to 140 °C; to `NC(=O)N1C(=O)C(C(=O)c2cc(Cl)cs2)c2cc(C(F)(F)F)ccc21` (centres undefined), 164 to 166 °C; to `CC(C)(C)OC(=O)C[C@@H](NS(=O)(=O)c1ccc2c(Cl)cnc(Cl)c2c1)C(=O)OC(C)(C)C`, 106 to 110 °C.
With `O=c1[nH]cc2c(c1-c1ccc(O)cc1)Nc1ccccc1S2`, the melting point was more than 300 °C.
To `CCOC(=O)COc1cc2c(c(Cl)c1Cl)C(=O)C(CC#C[Si](C)(C)C)(c1ccccc1)C2` (centres undefined) belongs 112 to 113 °C.
To `CC(C)(Oc1ccc(Cl)cc1)C(O)(Cn1cncn1)c1ccc(Cl)cc1` (centres undefined) belongs 135 °C; to `CC(C)N1C(=O)C(=O)NC1=NC(=N)Nc1ccc(Cl)c(Cl)c1`, 230 °C.
With `O=C(OCC1OC(OC(=O)C2CCCCC2)C(OC(=O)C2CCCCC2)C(OC(=O)C2CCCCC2)C1OC(=O)C1CCCCC1)C1CCCCC1` (centres undefined), the melting point lay in the range of 174 to 176 °C.
Under `CC(=O)Nc1ccc(Oc2c([N+](=O)[O-])cc(C(=O)O)cc2S(=O)(=O)NC(C)=O)cc1` stands 305 to 306 °C; under `Cc1cc(C)n2ncc(Br)c2n1`, 115 to 116 °C; under `Cc1nc(C#CCCc2nc3ccccc3o2)c[nH]1`, 152 to 154 °C.
To `O=C(NC(Cc1c[nH]c2ccccc12)C(=O)O)c1ccccc1Cl` (racemic) belongs 56 to 70 °C; to `O=c1[nH]c2ccccc2c2c(CCN3CCN(Cc4ccccc4)CC3)n(-c3ccccc3)nc12`, 211 to 212 °C; to `Cc1cccc(N2CCN(CCc3ccc(N4CCCNC4=O)cc3)CC2)c1`, 213 °C.
Under `COC(=O)c1ccc([N+](=O)[O-])c(OCCO)c1` stands 97 to 98 °C.
